Where two headings read alike, the source gives them in different places. Blank lines part the entries; values can stand above or below the compound they belong to.
Columns and labels:
Type in all cases: biochemical
CDK2/CCNE1 = CDK2/CCNE1 (Homo sapiens, UniProt P24941); assay: CDK2 homogeneous time-resolved fluorescence (HTRF) kinase assay; conditions: CDK2/CCNE
Summary of the method: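 An HTRF format measures CDK2/CCNE1 (3 nM) phosphorylating a 4E-BP1 Thr37/46 peptide at high (1 mM) ATP. Reactions run one hour at 23 °C, then EDTA-quenched and probed with Eu-labelled phospho-specific antibody.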

CDK1/CCNB1 = CDK1/CCNB1 (Homo sapiens, UniProt P06493); assay: CDK1 homogeneous time-resolved fluorescence (HTRF) kinase assay; conditions: CDK1/CCNB
Summary of the method: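 Kinase activity is measured as Lance signal (665 nm, or 665/615 nm ratio) from europium-labelled anti-phospho-Thr37/46 antibody binding ULight-4E-BP1 peptide. Reactions contain 0.5 nM enzyme, 1 mM ATP, 1% DMSO and run 60 min at 23 °C before EDTA quench.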

CDK6/CCND1 = CDK6/CCND1 (Homo sapiens, UniProt Q00534); assay: CDK6 homogeneous time-resolved fluorescence (HTRF) kinase assay; conditions: CDK6/CCND
Protocol: (§1) A CDK homogeneous time-resolved fluorescence (HTRF) assay was used to assess the potency of the compounds described herein.
(§2) To an untreated 384-well microtiter plate (ProxiPlate) was added 100 nL 100×test compound in DMSO and 5 μL 2×CDK enzyme in assay buffer (50 mM HEPES, 1 mM EGTA, 10 mM MgCl2, 0.01% Tween 20, 2 mM DTT). The plate was centrifuged at 800 RPM for 1 min then incubated for 20 min at 23 °C. 2.5 μL per well of 4×ATP and 2.5 μL 4×ULight™-eIF4E-binding protein 1 (Thr37/46) Peptide substrate were added to all wells. After addition, the plates were centrifuged at 800 RPM for 1 min. The plates were incubated at 23 °C for 60 min. 5 μL per well 4×EDTA solution were added to each well to stop the reaction. 5 μL 4×LANCE Ultra Europium-anti-phospho-eIF4E-binding protein 1 (Thr37/46) antibody were added to each well and the plate was centrifuged for 1 min at 800 RPM. The plate was incubated for 60 min at 23 °C. Fluorescence was read at 340 nm excitation and 665 nm emission on an EnVision 2105 fluorescence reader. The final concentrations of reagents in the activity assay were 1 nM CDK6/CCND1, 1 mM ATP, 50 nM ULight™-eIF4E-binding protein 1 (Thr37/46) Peptide substrate, 1% DMSO, 10 mM EDTA, and 2 nM LANCE Ultra Europium-anti-phospho-eIF4E-binding protein 1 (Thr37/46).
(§3) Dose-response titrations were conducted by using an 11-point, half-logarithmic serial dilution scheme typically starting at 10 μM. Signals were reported as fluorescence units at 665 nm or the ratio of fluorescence units at 665 nm/fluorescence units at 615 nm. Signals are referred to below as “Lance signals”.
(§4) Using this assay, the IC50 values of example compounds were determined. Table 3 illustrates the IC50 for various Example compounds of Formula IA. Table 4 illustrates the IC50 for various other Example compounds of Formula I. ND=not determined.

CDK4/CCND3 = CDK4/CCND3 (Homo sapiens, UniProt P11802); assay: CDK4 homogeneous time-resolved fluorescence (HTRF) kinase assay; conditions: CDK4/CCND
Protocol: as §1
as §2, with “were 1.5” for “were 1”, “nM CDK4/CCND3,” for “nM CDK6/CCND1,”
as §3, §4

[1] = x = IC50 <25 nM, read-out: CDK2/CCNE IC50 (<25 nM)
[2] = x = IC50 25-250 nM, read-out: CDK4/CCND IC50 (25-250 nM)
[3] = x = IC50 25-250 nM, read-out: CDK1/CCNB IC50 (25-250 nM)
[4] = x = IC50 25-250 nM, read-out: CDK6/CCND IC50 (25-250 nM)
[5] = x = IC50 >250 nM, read-out: CDK6/CCND IC50 (>250 nM column)

Chain of CDK4/CCND3 (P11802 whole entry): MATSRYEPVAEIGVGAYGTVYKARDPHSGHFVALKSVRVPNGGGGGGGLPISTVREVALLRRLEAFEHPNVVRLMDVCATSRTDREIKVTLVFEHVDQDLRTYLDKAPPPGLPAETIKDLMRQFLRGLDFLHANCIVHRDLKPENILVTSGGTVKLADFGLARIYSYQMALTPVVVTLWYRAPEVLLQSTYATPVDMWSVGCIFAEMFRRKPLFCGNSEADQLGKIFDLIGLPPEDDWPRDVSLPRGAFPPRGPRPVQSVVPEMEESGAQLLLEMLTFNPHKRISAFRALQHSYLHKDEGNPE
Chain of CDK4/CCND3 (P30281 whole entry partner): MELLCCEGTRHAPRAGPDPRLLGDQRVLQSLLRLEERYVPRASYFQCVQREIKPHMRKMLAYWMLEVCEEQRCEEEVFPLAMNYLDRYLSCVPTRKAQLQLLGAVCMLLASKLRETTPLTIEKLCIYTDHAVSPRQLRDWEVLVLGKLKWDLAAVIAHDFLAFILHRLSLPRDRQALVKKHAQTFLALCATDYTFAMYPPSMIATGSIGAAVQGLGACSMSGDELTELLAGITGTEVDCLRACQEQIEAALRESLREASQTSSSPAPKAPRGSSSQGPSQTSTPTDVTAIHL
Chain of CDK1/CCNB1 (P06493 whole entry): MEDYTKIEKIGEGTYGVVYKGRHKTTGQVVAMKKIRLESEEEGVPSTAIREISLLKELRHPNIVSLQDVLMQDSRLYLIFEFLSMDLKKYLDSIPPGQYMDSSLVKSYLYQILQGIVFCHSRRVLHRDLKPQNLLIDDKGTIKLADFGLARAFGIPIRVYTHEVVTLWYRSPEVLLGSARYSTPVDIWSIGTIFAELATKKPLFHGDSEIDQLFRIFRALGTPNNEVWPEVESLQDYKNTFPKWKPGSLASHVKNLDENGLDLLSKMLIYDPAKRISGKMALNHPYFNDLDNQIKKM
Chain of CDK1/CCNB1 (P14635 whole entry partner): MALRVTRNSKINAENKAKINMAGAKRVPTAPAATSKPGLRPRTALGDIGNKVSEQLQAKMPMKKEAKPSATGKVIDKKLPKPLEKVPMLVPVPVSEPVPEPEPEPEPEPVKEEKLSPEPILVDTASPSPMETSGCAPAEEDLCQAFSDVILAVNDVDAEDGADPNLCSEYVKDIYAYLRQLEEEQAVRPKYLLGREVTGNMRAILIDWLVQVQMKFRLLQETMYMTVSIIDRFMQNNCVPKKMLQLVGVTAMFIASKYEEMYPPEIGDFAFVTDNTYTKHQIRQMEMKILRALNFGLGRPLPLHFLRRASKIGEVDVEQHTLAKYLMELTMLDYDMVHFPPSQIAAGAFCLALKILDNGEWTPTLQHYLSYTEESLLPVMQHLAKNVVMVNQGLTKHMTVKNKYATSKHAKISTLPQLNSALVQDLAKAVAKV
Chain of CDK6/CCND1 (Q00534 whole entry): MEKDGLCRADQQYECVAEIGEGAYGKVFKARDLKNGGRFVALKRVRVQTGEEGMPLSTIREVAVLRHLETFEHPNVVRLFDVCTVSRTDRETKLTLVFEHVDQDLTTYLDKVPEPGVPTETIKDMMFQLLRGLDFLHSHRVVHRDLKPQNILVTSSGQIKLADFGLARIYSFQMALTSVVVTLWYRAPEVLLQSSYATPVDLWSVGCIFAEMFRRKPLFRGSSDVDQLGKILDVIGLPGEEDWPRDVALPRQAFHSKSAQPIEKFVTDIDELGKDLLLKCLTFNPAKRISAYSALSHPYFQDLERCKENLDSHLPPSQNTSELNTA
Chain of CDK6/CCND1 (P24385 whole entry partner): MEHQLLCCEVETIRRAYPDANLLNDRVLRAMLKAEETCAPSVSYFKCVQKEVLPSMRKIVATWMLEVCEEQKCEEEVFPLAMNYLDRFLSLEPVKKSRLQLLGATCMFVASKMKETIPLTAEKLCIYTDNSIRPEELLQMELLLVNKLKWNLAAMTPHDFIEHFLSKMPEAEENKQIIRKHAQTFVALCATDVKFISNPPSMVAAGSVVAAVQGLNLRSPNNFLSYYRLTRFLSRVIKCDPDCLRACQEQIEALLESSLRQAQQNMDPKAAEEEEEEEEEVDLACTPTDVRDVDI

SMILES: CS(=O)(=O)N1CCC(Nc2cc3c(C(=O)N4CCCC(O)C4)nccc3cn2)CC1 (racemic) [Ex 95, (3-hydroxypiperidin-1-yl)(7-((1-(methylsulfonyl)piperidin-4-yl)amino)-2,6-naphthyridin-1-yl)methanone]
IC50 (CDK2/CCNE1; >250 nM marked x, read-out: CDK2/CCNE IC50 >250 nM): > 250 nM
IC50 (CDK1/CCNB1; >250 nM marked x, read-out: CDK1/CCNB IC50 >250 nM): > 250 nM
IC50 (CDK6/CCND1; <25 nM, read-out: CDK6/CCND IC50 <25 nM): < 25 nM

SMILES: CC(C)S(=N)(=O)c1ccc(Nc2cc3c(C#Cc4ccc5c(c4)NC(=O)C5(C)CO)nccc3cn2)cc1 (single isomer, unassigned) [Ex 329, 3-(hydroxymethyl)-3-methyl-6-((7-((4-(propan-2-ylsulfonimidoyl)phenyl)amino)-2,6-naphthyridin-1-yl)ethynyl)indolin-2-one]
IC50 (CDK4/CCND3; <25 nM, read-out: CDK4/CCND IC50 <25 nM): < 25 nM
IC50 (CDK6/CCND1; 25-250 nM marked x, read-out: CDK6/CCND IC50 25-250 nM): 25 to 250 nM

SMILES: Cc1cc(S(C)(=N)=O)ccc1Nc1cc2c(C#Cc3ccc4c(c3)NC(=O)C43CCC3)nccc2cn1 (single isomer, unassigned) [Ex 333, 6'-((7-((2-methyl-4-(S-methylsulfonimidoyl)phenyl)amino)-2,6-naphthyridin-1-yl)ethynyl)spiro[cyclobutane-1,3'-indolin]-2'-one]
IC50 (CDK4/CCND3; 25-250 nM marked x, read-out: CDK4/CCND IC50 25-250 nM): 25 to 250 nM
IC50 (CDK1/CCNB1; 25-250 nM marked x, read-out: CDK1/CCNB IC50 25-250 nM): 25 to 250 nM

SMILES: Cc1cc2c(cc1C#Cc1nccc3cnc(Nc4ccc(S(=N)(=O)C(C)C)cc4)cc13)NC(=O)C2(C)C (single isomer, unassigned) [Ex 343, 3,3,5-trimethyl-6-((7-((4-(propan-2-ylsulfonimidoyl)phenyl)amino)-2,6-naphthyridin-1-yl)ethynyl)indolin-2-one]
IC50 (CDK2/CCNE1; [1]): < 25 nM
IC50 (CDK4/CCND3; [2]): 25 to 250 nM
IC50 (CDK1/CCNB1; [3]): 25 to 250 nM

SMILES: CC1(CO)C(=O)Nc2cc(C#Cc3nccc4cnc(Nc5ccc(S(C)(=O)=O)cc5)cc34)ccc21 (single isomer, unassigned) [Example 373, 3-(hydroxymethyl)-3-methyl-6-((7-((4-(methylsulfonyl)phenyl)amino)-2,6-naphthyridin-1-yl)ethynyl)indolin-2-one]
IC50 (CDK6/CCND1; [5]): > 250 nM

SMILES: Cc1c(-c2nccc3cnc(Nc4ccc(S(C)(=N)=O)cc4)cc23)ccc2nn(C)cc12 (single isomer, unassigned) [Example 546, (4-((5-(2,4-dimethyl-2H-indazol-5-yl)-2,6-naphthyridin-3-yl)amino)phenyl)(imino)(methyl)-λ^6-sulfanone]
IC50 (CDK6/CCND1; [5]): > 250 nM

SMILES: Cc1c(-c2nccc3cnc(Nc4ccc(S(=O)(=O)Nc5cc(F)cc(C(C)(C)O)c5)cc4)cc23)ccc2c1cnn2CC(C)(C)O [Ex 801, N-(3-fluoro-5-(2-hydroxypropan-2-yl)phenyl)-4-((5-(1-(2-hydroxy-2-methylpropyl)-4-methyl-1H-indazol-5-yl)-2,6-naphthyridin-3-yl)amino)benzenesulfonamide]
IC50 (CDK2/CCNE1; <25 nM, read-out: CDK2/CCNE IC50, <25 nM): < 25 nM
IC50 (CDK1/CCNB1; >250 nM, read-out: CDK1/CCNB IC50 >250 nM): > 250 nM
IC50 (CDK6/CCND1; >250 nM, 1 mM ATP, read-out: CDK6/CCND IC50, >250 nM): > 250 nM

Next, values leading:

IC50 (CDK4/CCND3; [2]): 25 to 250 nM
SMILES: N=S(=O)(c1ccc(Nc2cc3c(C#Cc4ccc5c(c4)NC(=O)C54CC4)nccc3cn2)cc1)C1CCC1 (single isomer, unassigned) [Ex 353, 6'-((7-((4-(cyclobutanesulfonimidoyl)phenyl)amino)-2,6-naphthyridin-1-yl)ethynyl)spiro[cyclopropane-1,3'-indolin]-2'-one]

IC50 (CDK6/CCND1; [4]): 25 to 250 nM
SMILES: N=S(=O)(c1ccc(Nc2cc3c(C#Cc4ccc5c(c4)NC(=O)C54CCC4)nccc3cn2)cc1)C1CC1 (single isomer, unassigned) [Ex 365, 6'-((7-((4-(cyclopropanesulfonimidoyl)phenyl)amino)-2,6-naphthyridin-1-yl)ethynyl)spiro[cyclobutane-1,3'-indolin]-2'-one]

IC50 (CDK6/CCND1; [5]): > 250 nM
SMILES: CCS(=N)(=O)c1ccc(Nc2cc3c(C#Cc4ccc5c(c4)NC(=O)C54CCC4)nccc3cn2)cc1 (single isomer, unassigned) [Ex 367, 6'-((7-((4-(ethylsulfonimidoyl)phenyl)amino)-2,6-naphthyridin-1-yl)ethynyl)spiro[cyclobutane-1,3'-indolin]-2'-one]

IC50 (CDK6/CCND1; [4]): 25 to 250 nM
SMILES: CC1(C)C(=O)Nc2cc(C#Cc3nccc4cnc(Nc5ccc(S(C)(=N)=O)cc5)cc34)ccc21 (single isomer, unassigned) [Ex 452, 3,3-dimethyl-6-((7-((4-(S-methylsulfonimidoyl)phenyl)amino)-2,6-naphthyridin-1-yl)ethynyl)indolin-2-one]

IC50 (CDK2/CCNE1; [1]): < 25 nM
IC50 (CDK1/CCNB1; x = IC50 <25 nM, read-out: CDK1/CCNB IC50 (<25 nM)): < 25 nM
IC50 (CDK6/CCND1; [4]): 25 to 250 nM
SMILES: CC1(C)C(=O)Nc2cc(C#Cc3nccc4cnc(Nc5ccc(S(=N)(=O)C6CCC6)cc5)cc34)ccc21 (single isomer, unassigned) [Ex 453, 6-((7-((4-(cyclobutanesulfonimidoyl)phenyl)amino)-2,6-naphthyridin-1-yl)ethynyl)-3,3-dimethylindolin-2-one]

IC50 (CDK4/CCND3; x = IC50 <25 nM, read-out: CDK4/CCND IC50 (<25 nM)): < 25 nM
IC50 (CDK1/CCNB1; [3]): 25 to 250 nM
SMILES: CC1(C)C(=O)Nc2cc(C#Cc3nccc4cnc(Nc5ccc(S(=N)(=O)C6CCC6)cc5)cc34)ccc21 (single isomer, unassigned) [Ex 454, 6-((7-((4-(cyclobutanesulfonimidoyl)phenyl)amino)-2,6-naphthyridin-1-yl)ethynyl)-3,3-dimethylindolin-2-one]

IC50 (CDK6/CCND1; [5]): > 250 nM
SMILES: CC(C)S(=N)(=O)c1ccc(Nc2cc3c(C#Cc4ccc5c(c4)NC(=O)C5(C)C)nccc3cn2)cc1 (single isomer, unassigned) [Ex 456, 3,3-dimethyl-6-((7-((4-(propan-2-ylsulfonimidoyl)phenyl)amino)-2,6-naphthyridin-1-yl)ethynyl)indolin-2-one]

IC50 (CDK4/CCND3; x = IC50 >250 nM, read-out: CDK4/CCND IC50 (>250 nM column)): > 250 nM
SMILES: CCC1(CC)C(=O)Nc2cc(C#Cc3nccc4cnc(Nc5ccc(S(=N)(=O)C6CCC6)cc5)cc34)ccc21 (single isomer, unassigned) [Example 413, 6-((7-((4-(cyclobutanesulfonimidoyl)phenyl)amino)-2,6-naphthyridin-1-yl)ethynyl)-3,3-diethylindolin-2-one]
